Measurements as given in patent publication US20110092476A1, “Bicycloheteroaryl compounds as P2X7 modulators and uses thereof” (Renovis, Inc., priority 2006, published 2011).
≈ marks a conversion by molar mass, not a printed value. Where two headings read alike, the source gives them in different places.

How the values were obtained:
[1] = Determination of aqueous (kinetic) solubility; format: physicochemical; conditions: aqueous buffer, kinetic from dmso stock, buffer pH 7.4
Experimental: The mixture was vortexed for 1 hour and equilibrated overnight at room temperature. The mixture was filtered through a saturated filter and the filtrate was analyzed by LC/MS/MS.
For the purpose of Table 5, solubility of each compound is expressed as follows: […]

P2X7 receptor = biological target: T1, P2X7 receptor (Homo sapiens, UniProt Q99572); experiment: IL-1β release assay in differentiated THP-1 cells stimulated with BzATP (Example 9); format: cell-based; conditions: for IC50: THP-1 cells, IL-1β by ELISA
T1 construct: host or cells: THP-1 cells differentiated with LPS and IFN-γ
T1 sequence (Q99572 1-595): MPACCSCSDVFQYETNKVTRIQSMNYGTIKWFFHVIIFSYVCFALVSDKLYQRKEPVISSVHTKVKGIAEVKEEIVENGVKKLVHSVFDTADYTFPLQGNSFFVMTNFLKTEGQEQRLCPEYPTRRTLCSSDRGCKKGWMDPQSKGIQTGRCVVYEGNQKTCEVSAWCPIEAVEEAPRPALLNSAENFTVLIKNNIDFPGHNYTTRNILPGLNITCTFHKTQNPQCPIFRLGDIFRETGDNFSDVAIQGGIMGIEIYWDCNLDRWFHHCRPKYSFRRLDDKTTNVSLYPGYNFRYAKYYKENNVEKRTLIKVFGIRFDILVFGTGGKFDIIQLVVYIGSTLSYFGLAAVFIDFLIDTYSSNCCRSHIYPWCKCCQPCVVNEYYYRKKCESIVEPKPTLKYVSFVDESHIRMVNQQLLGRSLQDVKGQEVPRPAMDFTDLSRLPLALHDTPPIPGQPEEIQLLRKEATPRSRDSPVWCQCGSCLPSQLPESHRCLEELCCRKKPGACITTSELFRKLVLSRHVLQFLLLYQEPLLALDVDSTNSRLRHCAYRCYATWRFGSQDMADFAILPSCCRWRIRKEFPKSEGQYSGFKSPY
In short: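 THP-1 cells differentiated 16 h with 100 ng/mL LPS and 100 ng/mL IFN-γ, primed 2 h with fresh LPS, pretreated 30 min with compound, then stimulated 45 min with 250 uM BzATP (final). Supernatant IL-1β measured by ELISA; background-adjusted percent inhibition fitted to a four-parameter logistic for IC50.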

[2] = Half-life in human liver microsomes (HLM); conditions: pH 7.4
Experimental: (§1) Test compounds (1 μM) are incubated with 3.3 mM MgCl2 and 0.78 mg/mL HLM (HL101) in 100 mM potassium phosphate buffer (pH 7.4) at 37° C. on the 96-deep well plate. The reaction mixture is split into two groups, a non-P450 and a P450 group. NADPH is only added to the reaction mixture of the P450 group. An aliquot of samples of P450 group is collected at 0, 10, 30, and 60 min time point, where 0 min time point indicated the time when NADPH is added into the reaction mixture of P450 group. […] Collected aliquots are extracted with acetonitrile solution containing an internal standard. […] The compound concentration in supernatant is measured by LC/MS/MS system.
(§2) The half-life value is obtained by plotting the natural logarithm of the peak area ratio of compounds/internal standard versus time. The slope of the line of best fit through the points yields the rate of metabolism (k). This is converted to a half-life value using following equations:

[3] = Pharmacokinetic evaluation following intravenous and oral administration in rats (oral bioavailability); format: in vivo, rat; conditions: male Sprague-Dawley rats, PO 1 to 5 mg/kg vs IV 1 mg/kg, AUCinf dose-normalized
Experimental: Male Sprague-Dawley rats are acclimatized for at least 24 hours prior to experiment initiation. During acclimation period, all animals receive food and water ad libitum. However, food but not water is removed from the animal's cages at least 12 hours before initiation of the experiment. During the first 3 hours of experimentation, the animals receive only water ad libitum. At least three animals each are tested for intravenous and oral dosage. For intravenous formulation, compounds were dissolved (0.25 to 1 mg/mL) in a mixture of 3% dimethyl sulfoxide, 40% PEG 400 and the rest percentage of 40% Captisol in water (w/v). The animals are weighed before dosing. The determined body weight is used to calculate the dose volume for each animal.
Dose volume (mL/kg)=1 mg/kg/formulation concentration (mg/mL)
In instances where the formulation concentrations were less than 0.5 mg/mL, the dosing volume is about 2 mL/kg.
PO rats are typically dosed through oral gavage following the same dose volume formula as IV to achieve a dose level of 1 to 5 mg/kg. […] About 250 uL of blood is obtained at each time point from the animal. Equal volumes of 0.9% normal saline are replaced to prevent dehydration. The whole blood samples are maintained on ice until centrifugation. Blood samples are then centrifuged at 14,000 rpm for 10 minutes at 4° C. and the upper plasma layer transferred into a clean vial and stored at −80° C. The resulting plasma samples are then analyzed by liquid chromatography-tandem mass spectrometry. Following the measurement of plasma samples and dosing solutions, plasma concentration-time curve is plotted. Plasma exposure is calculated as the area under the concentration-time curve extrapolated to time infinite (AUinf). The AUCinf is averaged and the oral bioavailability (% F) for individual animal is calculated as:
AUCinf (PO)/AUCinf (IV), normalized to their respective dose levels. The % F is reported as the mean % F of all animals dosed orally with the compound of the invention at the specified level (see Table 4 below).
For the purpose of Table 4, oral bioavailability of each compound is expressed as follows: […]

in vitro = conditions: human, microsomes, pH 7.4
Experimental: as §1, §2

[4] = 0.3 μM compound, differentiated THP-1 cells, BzATP 250 uM, "+" symbols, read-out: IL-1β % Inhib. @ 0.3 or 0.1 uM
[5] = THP-1, read-out: IL-1β % Inhib. @ 0.3 or 0.1 uM

| Structure (SMILES) | solubility [1] [µM] | inhibition at 0.3 µM (P2X7 receptor; [4]) [%] | half-life at 1 μM [2] [h] | Oral Bioavailability F (%) [3] | inhibition at 0.3 µM (P2X7 receptor; differentiated THP-1 cells, BzATP 250 uM, "+" symbols = compound at 0.3 μM, read-out: IL-1β % Inhib. @ 0.3 or 0.1 uM) [%] | inhibition at 0.3 µM (P2X7 receptor; [5]) [%] | half-life (in vitro) [h] | IC50 (P2X7 receptor; BzATP 250 uM) [nM] |
| --- | --- | --- | --- | --- | --- | --- | --- | --- |
| C[C@H](C(=O)Nc1cccc2c(=O)n([C@H](C)C(N)=O)ccc12)c1ccc(Cl)c(Cl)c1 [Compound 268] | 51 to 75 (≈ 22 to 32.4 µg/mL) | > 76 | 1.36 | ++ (26-50% F) | – | – | – | – |
| C[C@H](C(N)=O)n1ccc2c(NC(=O)[C@H](C)c3ccc(Cl)c(Cl)c3)cccc2c1=O [Compound 269] | 26 to 50 (≈ 11.2 to 21.6 µg/mL) | > 76 | 0.93 | ++ (26-50% F) | – | – | – | – |
| C[C@H](C(N)=O)n1ccc2c(NC(=O)Cc3ccc(C(F)(F)F)cc3)c(Cl)ccc2c1=O [Compound 316, (R)-2-{6-Chloro-1-oxo-5-[2-(4-trifluoromethyl-phenyl)-acetylamino]-1H-isoquinolin-2-yl}-propionamide] | < 25 | – | 3.25 | ++ (26-50% F) | – | > 76 | – | – |
| C[C@@H](C(N)=O)n1ccc2c(NC(=O)Cc3ccc(Cl)c(C(F)(F)F)c3)cccc2c1=O [Compound 353] | < 25 | > 76 | 1.01 | + (0-25% F) | – | – | – | – |
| O=C(Cc1ccc(C(F)(F)F)c(F)c1)Nc1cccc2c(=O)n(CCO)ccc12 [Compound 357] | < 25 | > 76 | 1.54 | ++++ (>75% F) | – | – | – | – |
| C[C@H](CO)n1ccc2c(NC(=O)Cc3ccc(C(F)(F)F)c(F)c3)c(Cl)ccc2c1=O [Compound 375, N-[6-Chloro-2-((R)-2-hydroxy-1-methyl-ethyl)-1-oxo-1,2-dihydro-isoquinolin-5-yl]-2-(3-fluoro-4-trifluoromethyl-phenyl)-acetamide] | > 75 | > 76 | 1.63 | ++++ (>75% F) | – | – | – | – |
| C[C@H](CO)n1ccc2c(NC(=O)Cc3ccc(Cl)c(Cl)c3)c(Cl)ccc2c1=O [Compound 376] | > 75 | > 76 | 0.9 | ++ (26-50% F) | – | – | – | – |
| C[C@H](CO)n1ccc2c(NC(=O)Cc3ccc(F)c(C(F)(F)F)c3)c(Cl)ccc2c1=O [Compound 377, N-[6-Chloro-2-((R)-2-hydroxy-1-methyl-ethyl)-1-oxo-1,2-dihydro-isoquinolin-5-yl]-2-(4-fluoro-3-trifluoromethyl-phenyl)-acetamide] | > 75 | – | 1.01 | +++ (51-75% F) | – | > 76 | – | – |
| O=C(Cc1ccc(C(F)(F)F)c(F)c1)Nc1c(Cl)ccc2c(=O)n(CCO)ccc12 [Compound 383] | < 25 | > 76 | – | ++++ (>75% F) | – | – | 3.65 | – |
| O=C(Cc1ccc(F)c(C(F)(F)F)c1)Nc1c(Cl)ccc2c(=O)n(CCO)ccc12 [Compound 386, N-[6-Chloro-2-(2-hydroxy-ethyl)-1-oxo-1,2-dihydro-isoquinolin-5-yl]-2-(4-fluoro-3-trifluoromethyl-phenyl)-acetamide] | < 25 | – | 1.08 | + (0-25% F) | – | > 76 | – | – |
| Cc1ccc2c(=O)n([C@H](C)CO)ccc2c1NC(=O)Cc1ccc(C(F)(F)F)c(F)c1 [Compound 393, N-[6-Methyl-2-((R)-2-hydroxy-1-methyl-ethyl)-1-oxo-1,2-dihydro-isoquinolin-5-yl]-2-(3-fluoro-4-trifluoromethyl-phenyl)-acetamide] | > 75 | – | – | +++ (51-75% F) | – | > 76 | 1.45 | 5.38 |
| Cc1ccc2c(=O)n([C@H](C)CO)ccc2c1NC(=O)Cc1ccc(F)c(C(F)(F)F)c1 [Compound 394] | > 75 | > 76 | 0.7 | ++ (26-50% F) | – | – | – | 5.54 |

The next lines start with results.

| solubility [1] [µM] | inhibition at 0.3 µM (P2X7 receptor; [4]) [%] | half-life at 1 μM [2] [h] | Oral Bioavailability F (%) [3] | inhibition at 0.3 µM (P2X7 receptor; differentiated THP-1 cells, BzATP 250 uM, "+" symbols = compound at 0.3 μM, read-out: IL-1β % Inhib. @ 0.3 or 0.1 uM) [%] | Structure (SMILES) | inhibition at 0.3 µM (P2X7 receptor; [5]) [%] | half-life (in vitro) [h] | IC50 (P2X7 receptor; BzATP 250 uM) [nM] |
| --- | --- | --- | --- | --- | --- | --- | --- | --- |
| 26 to 50 (≈ 10.3 to 19.9 µg/mL) | > 76 | 0.97 | ++ (26-50% F) | – | C[C@H](C(=O)Nc1cccc2c(=O)n([C@@H](C)C(N)=O)ccc12)c1ccc(Cl)cc1 [Compound 265] | – | – | – |
| 51 to 75 (≈ 23.8 to 34.9 µg/mL) | > 76 | 1.28 | ++ (26-50% F) | – | CC(C(=O)Nc1cccc2c(=O)n([C@H](C)C(N)=O)ccc12)c1ccc(Cl)c(C(F)(F)F)c1 (stereo partly drawn) [Compound 267, (R)-2-{5-[2-(4-Chloro-3-trifluoromethyl-phenyl)-propionylamino]-1-oxo-1H-isoquinolin-2-yl}-propionamide] | – | – | – |
| < 25 | > 76 | 3.35 | + (0-25% F) | – | C[C@H](C(N)=O)n1ccc2c(NC(=O)Cc3ccc(C(F)(F)F)cc3)cccc2c1=O [Compound 298] | – | – | – |
| > 75 | > 76 | 0.7 | ++ (26-50% F) | – | C[C@H](CO)n1ccc2c(NC(=O)Cc3cccc(C(F)(F)F)c3F)cccc2c1=O [Compound 324] | – | – | – |
| > 75 | > 76 | 1.41 | ++++ (>75% F) | – | C[C@H](CO)n1ccc2c(NC(=O)Cc3ccc(Cl)c(F)c3)cccc2c1=O [Compound 330, 2-(4-Chloro-3-fluorophenyl)-N-[2-((R)-2-hydroxy-1-methyl-ethyl)-1-oxo-1,2-dihydro-isoquinolin-5-yl]-acetamide] | – | – | – |
| > 75 | > 76 | 0.93 | ++ (26-50% F) | – | C[C@H](CO)n1ccc2c(NC(=O)Cc3ccc(C(F)(F)F)c(F)c3)cccc2c1=O [Compound 335] | – | – | – |
| > 75 | > 76 | 0.93 | +++ (51-75% F) | – | C[C@H](CO)n1ccc2c(NC(=O)Cc3ccc(F)c(C(F)(F)F)c3)cccc2c1=O [Compound 339] | – | – | – |
| < 25 | > 76 | 2.36 | + (0-25% F) | – | C[C@@H](C(N)=O)n1ccc2c(NC(=O)Cc3ccc(C(F)(F)F)cc3)cccc2c1=O [Compound 351] | – | – | – |
| < 25 | > 76 | 1.16 | ++++ (>75% F) | – | C[C@H](CO)n1ccc2c(NC(=O)Cc3ccc(C(F)(F)F)cc3F)cccc2c1=O [Compound 359] | – | – | – |
| > 75 | – | 3.73 | ++ (26-50% F) | > 76 | Cc1ccc2c(=O)n(CCO)ccc2c1NC(=O)Cc1ccc(C(F)(F)F)c(F)c1 [Compound 400] | – | – | – |
